Source: publication PMC5485613, “A novel TRPM8 agonist relieves dry eye discomfort” (BMC Ophthalmology, 2017)
Several values for one entry are separate records, joined by “and”; a condition that tells them apart may be missing. Equal entries are not always repeated.

What was measured:
TRPM8-sensory neurons = assay: Calcium imaging of primary sensory neurons from Trpm8 EGFP mice; type: cell-based, mouse; conditions: C3 10 μM
Description: Calcium imaging was used to test the C3 selectivity on TRPM8-sensory neurons. Trpm8 ^+/EGFPmice were gifted by Dr. Yu-Qing Cao, Pain Center of Washington University in Saint Louis, School of Medicine, Missouri. Trigeminal ganglions and dorsal root ganglions from 4 to 5 weeks old mice were collected after CO2 euthanasia and digested for 30–40 min before plated on cover slips (8 mm), which were coated with poly-D-lysine for 40 min before use. Cover slips were gently washed with culture media to remove myelin after incubating for 35–40 min. Calcium imaging was done after incubation overnight at 37 °C, 5% CO2. Neurons were loaded with Fura-2 AM™ (Molecular Probes) for 30 min at room temperature. After washing and recovery, neurons were imaged at 340 and 380 nm excitation to detect free calcium influx. An increase of 50% of the 340/380 ratio was considered as the response threshold which were measured under blinded conditions for genotypes. Compounds were applied to the bath and calcium response was acquired by an inverted Nikon fluorescence microscope with a CoolSnap HQ2 CCD camera (Photometrics, Tucson, AZ). Data was quantified offline with the Nikon-NIS program.

mouse TRPV1 = molecular target: T1, mouse TRPV1 (Mus musculus, UniProt Q704Y3); assay: TRPV1 calcium imaging (Fura-2) in transfected KNRK cells; type: cell-based; conditions: 10 μM
T1 construct: expressed in transfected cells; host or cells: KNRK cells (rat kidney), transiently transfected
T1 sequence (Q704Y3 whole entry): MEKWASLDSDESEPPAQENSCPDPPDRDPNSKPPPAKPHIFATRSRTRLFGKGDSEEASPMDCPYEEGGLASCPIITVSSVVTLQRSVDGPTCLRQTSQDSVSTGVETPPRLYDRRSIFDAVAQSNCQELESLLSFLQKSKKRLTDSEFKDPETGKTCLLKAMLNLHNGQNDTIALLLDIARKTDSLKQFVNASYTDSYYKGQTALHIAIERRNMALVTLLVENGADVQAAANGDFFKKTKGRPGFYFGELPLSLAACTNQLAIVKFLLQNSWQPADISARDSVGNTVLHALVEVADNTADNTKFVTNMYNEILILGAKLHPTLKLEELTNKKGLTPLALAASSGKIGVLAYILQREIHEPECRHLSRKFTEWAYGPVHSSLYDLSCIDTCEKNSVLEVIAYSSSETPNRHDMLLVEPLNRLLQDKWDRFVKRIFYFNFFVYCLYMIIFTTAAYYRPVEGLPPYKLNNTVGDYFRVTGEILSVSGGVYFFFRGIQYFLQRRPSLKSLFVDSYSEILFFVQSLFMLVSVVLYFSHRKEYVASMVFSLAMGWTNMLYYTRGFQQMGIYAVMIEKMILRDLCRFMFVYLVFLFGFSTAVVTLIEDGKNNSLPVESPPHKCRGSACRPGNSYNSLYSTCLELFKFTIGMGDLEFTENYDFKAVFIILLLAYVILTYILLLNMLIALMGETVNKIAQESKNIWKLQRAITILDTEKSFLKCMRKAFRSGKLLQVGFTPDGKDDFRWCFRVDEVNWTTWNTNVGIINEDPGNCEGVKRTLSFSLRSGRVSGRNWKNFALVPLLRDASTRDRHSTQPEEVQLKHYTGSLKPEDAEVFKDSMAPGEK
Description: To further examine the specificity of C3, tests were conducted on TRPV1 channels and TRPA1 channels expressed in Kirsten murine sarcoma virus transformed rat kidney (KNRK) cells. KNRK cells were cultured as a monolayer and maintained in Dulbeccos’s Modified Eagles’s Medium (Life Technologies), supplemented with 10% fetal bovine serum (Life Technologies), 100 units/mL penicillin and 100 μg/mL streptomycin, in an incubator of 5% CO2 at 37 °C. After suspension, the cells were coated on cover slips for 12 h, then transiently transfected with cDNA (pc3.1 DNA) for TRPV1 or TRPA1 with Lipofectamine 2000 (Invitrogen) for 24 h, and loaded with Fura-2 AM™ (Molecular Probes) for 40 min at 37 °C. After washing and recovery, KNRK cells were imaged at 340 and 380 nm excitation to detect free calcium influx. An increase of 50% of the 340/380 ratio was considered as the response threshold which were measured under masked conditions for plasmids. Compounds were applied to the bath and calcium response was acquired by an inverted Nikon fluorescence microscope with a CoolSnap HQ2 CCD camera (Photometrics, Tucson, AZ). Data were quantified offline with the Nikon-NIS program.

[1] = system: patients with dry eye disease; assay: Single application to eyelids of patients with dry eye disease (Expt 1); type: in vivo, human
Description: In the first experiment in which only a single application was tested, 60 subjects were randomly assigned using online software (http://www.graphpad.com/quickcalcs/index.cfm). One group received the vehicle solution (distilled water) (N = 30), and the second group received the TRPM8 agonist C3 dissolved in 2 mg/mL in distilled water (N = 30). Test solutions were kept at room temperature and topically applied to the eyelid skin and margins using an absorbent cotton gauze square (0.4 g rectangle (50 mm × 60 mm), CS-being, Daisan Cotton, Japan). A loading volume of 0.5 mL of solution was used to wet the cotton and the square wiped twice across the closed eyelids (Fig. 5c). The off-loaded volume from the gauze was estimated by weighing the square before and after wiping and found to be 6.5 mg or 6.5 μL. For the C3 solution this is equivalent to 13 μg of C3 for both eyes. This method of delivery targets the edges of the closed eyelids and utilizes the eyelashes as a wick to distribute the solution to the mucocutaneous junctions, conjunctiva, and precorneal film. The lid wiper mechanism of the blink further evenly distributes the solution on to the ocular surface. By using this wiping method, bolus delivery of an eye drop to the corneal surface is avoided.
Subsequently, cooling sensation (every 5 min), TBUT (every 10 min), basal tear secretion (every 20 min), and keratoepitheliopathy (KEP) score (every 30 min) were evaluated for 1 h. In addition, a questionnaire asking the severity of dry eye was used to evaluate the changes in dry eye symptom before and 1 h after application of topical agents. To avoid the effect of topical anesthesia on patient’s sensation, changes in cooling sensation and symptoms of dry eye were evaluated in the right eye, and the remaining examinations including the basal tear secretion measured by Schirmer score with application of topical 0.5% proparacine were performed on the left eye. All examinations were performed by a single masked investigator (K.C.Y) who was not informed of the results of the randomization. All the experiments and the answering the questionnaire were performed in a separate room so that the subjects would not compare the difference of the medications. The room temperature of the study was maintained at 25 °C. Cooling sensation was recorded by subjects using VAS symptom intensity scores on a scale of 0 (no symptom) to 10 (maximum intensity). The severity of dry eye symptoms was graded on a numerical score of 0 to 4 as follows; 0, no symptoms; 1, mild symptoms; 2, moderate symptoms; 3, severe symptoms; and 4, very severe symptoms. TBUT and basal tear secretion (Schirmer score with application of topical 0.5% proparacaine) were measured as previously described. To assess the corneal epithelial damage, the cornea was stained with 1% Fluorescein dye and the severity of KEP was scored by multiplying the area score (0–3) by density score (0–3) of staining.

activation of TRPV1 (calcium response) (mouse TRPV1): inactive
SMILES: CCCCCCCCCP(=O)(C(C)C)C(C)C [C3, 1-diisopropylphosphorylnonane]
calcium entry in TRPM8 EGFP/+ sensory neurons (TRPM8-sensory neurons): activates calcium entry | duration of increase in tear secretion ([1]; 2 mg/mL single application): 60 min | ocular pain or irritation ([1]; 2 mg/mL single application): None of patients reported | basal tear secretion ([1]; 2 mg/mL single application, 20, 40 and 60 min): significantly increased | TBUT ([1]; 2 mg/mL single application, 30 min and 40 min, above baseline): significantly elevated | dry eye symptom score ([1]; 2 mg/mL single application, 1 h, compared to baseline): improved significantly | duration of ocular cooling ([1]; 2 mg/mL single application, n = 30): 46 min and 46 ± 2 min | KEP score ([1]; 2 mg/mL single application, versus vehicle): No differences
